Assay: Human HepG2 cell viability assay in 384 well format
Format: toxicity, cell-based
Parameters: dose 125 nL, time 70.5 hour; concentration not given beside the values
Details: HepG2 cells, read-out: Inhibition

O=C(NCC1CC1)c1c2c(N3CCCC3)ncnc2n2ccccc12
cytotoxicity at 70.5 h: 9.08%

COCC(=O)N1CC[C@@H](N2CCN(C)CC2)[C@@H]1Cc1ccccc1
cytotoxicity at 70.5 h: 9.62%

CNC(=O)C1=NOC2(CCN(Cc3nccs3)C2)C1 (centres undefined)
cytotoxicity at 70.5 h: -3.01%

Cc1cc2ccccc2n1CCC(=O)N1CCCC2(CC1)CNC(=O)O2 (centres undefined)
cytotoxicity at 70.5 h: -7.42%

Cc1cc(C(=O)N(Cc2c(C)nn(C)c2C)C(C)C)nc(C)n1
cytotoxicity at 70.5 h: 17%

NC(=O)c1csc(N2CCN(C3CCc4ccccc4C3)CC2)n1 (centres undefined)
cytotoxicity at 70.5 h: -14.7%

CS(=O)(=O)CCN1C[C@H](NC(=O)c2cnc(O)cn2)[C@@H](C2CC2)C1
cytotoxicity at 70.5 h: 11.1%

O=C(CCc1nc(-c2ccccc2)no1)N[C@H]1COC[C@@H]1N1CCCC1
cytotoxicity at 70.5 h: -9.03%

CCC(Nc1nc(CCN)nc2ccccc12)c1cccs1 (centres undefined)
cytotoxicity at 70.5 h: -3.38%

CCC(NC(=O)C1CCN(C(C)C)CC1)c1cn2cccnc2n1 (centres undefined)
cytotoxicity at 70.5 h: -2.43%

Cc1nn(C)c2nc(NCCCN3CCCC(C(N)=O)C3)sc12 (centres undefined)
cytotoxicity at 70.5 h: -8.69%

CSc1cccc(NC(=O)N2CCCC(CNC(=O)c3ccco3)C2)c1 (centres undefined)
cytotoxicity at 70.5 h: -8.32%

CC(C)CCN1CC2(CCN(C3CCCOC3)CC2)OC1=O (centres undefined)
cytotoxicity at 70.5 h: -8.74%

Cc1cccc2c1nc(COCC(=O)O)n2-c1ccc(N)nc1
cytotoxicity at 70.5 h: 9.09%

CN(C)CCO[C@H]1C[C@@H](O)C12CCN(c1ncccc1Cl)CC2
cytotoxicity at 70.5 h: -5.24%

O=C(O)c1cc(-c2ccoc2)cc(S(=O)(=O)NCc2ccccn2)c1
cytotoxicity at 70.5 h: -8.18%

COc1ccc2c(c1)OCC(Cc1cc(C(=O)N3CCCC3)ccn1)C2 (centres undefined)
cytotoxicity at 70.5 h: -32.3%

O=C1NCCCc2[nH]c(C3CCN(C(=O)C4CC4)CC3)nc21
cytotoxicity at 70.5 h: 11.6%

Cc1nc(N(Cc2ccncc2)CC2CCCO2)c2ccsc2n1 (centres undefined)
cytotoxicity at 70.5 h: -5.47%

CCCS(=O)(=O)NCc1cccnc1Oc1ccc(C)c(F)c1F
cytotoxicity at 70.5 h: -1.35%

CC(C)CN(Cc1cnn(C)c1)C(=O)C1COc2ccccc2C1 (centres undefined)
cytotoxicity at 70.5 h: 1.15%

Cc1nc[nH]c1C(=O)NCc1cccnc1N(C)C1CCCCC1
cytotoxicity at 70.5 h: 4.83%

O=C(CC1COCCN1)N1CCC(N2CCc3ccccc3C2)CC1 (centres undefined)
cytotoxicity at 70.5 h: 7.65%

CCn1nc(C)c(CCNC(=O)c2cccc(NCC(=O)O)c2)c1C
cytotoxicity at 70.5 h: 1.17%

CN(C)c1nc2c(c(=O)[nH]1)CCN(C(=O)c1ccc(=O)[nH]c1)C2
cytotoxicity at 70.5 h: -3.2%

CCn1c(C2CCCN(Cc3ccc(OC)c(C)c3C)C2)nn(C)c1=O (centres undefined)
cytotoxicity at 70.5 h: -5.07%

N#CC1(c2ccccc2)CCN(C(=O)C2CCCN(C(N)=O)C2)CC1 (centres undefined)
cytotoxicity at 70.5 h: 43.9%

Cc1[nH]c2c(C)ccc(C)c2c1CC(=O)NC1CCCNC1=O (centres undefined)
cytotoxicity at 70.5 h: -5.85%

Cc1ccc(-c2nnc(CN3CCCC(O)(CO)CC3)o2)n1C (centres undefined)
cytotoxicity at 70.5 h: 14.8%

COc1cccc2c1OCC(Cc1cnc(N)c(C)c1)C2 (centres undefined)
cytotoxicity at 70.5 h: -8.04%

Cn1cc(CCC(=O)N2C[C@H]3CC[C@@H]2CN(Cc2cccnc2)C3)cn1
cytotoxicity at 70.5 h: 12.2%

C[C@@H]1CN(CCC(=O)NCc2ccccc2Cl)CC[C@@]1(O)C1CCC1
cytotoxicity at 70.5 h: -0.451%

COCc1cc(N2CCOCC2)n2nccc2n1
cytotoxicity at 70.5 h: -3.4%

Cc1nc(C)c(Cc2nc(C3CC3)n[nH]2)c(=O)[nH]1
cytotoxicity at 70.5 h: -3.16%

O=C(c1cc(=O)[nH]c(=O)[nH]1)N1CCCC(CO)(CC2CC2)C1 (centres undefined)
cytotoxicity at 70.5 h: -10.5%

c1cnn(Cc2ccc(CN3CCC4(CCNCC4)C3)cc2)c1
cytotoxicity at 70.5 h: 2.52%

Cc1nc(CN(C)Cc2nc(-c3sccc3C)oc2C)no1
cytotoxicity at 70.5 h: -3%

Cc1ccc(N2CCN(c3ccccc3C)CC2C)nn1 (centres undefined)
cytotoxicity at 70.5 h: -0.203%

O=C(Nc1cnc2n1CCCC2)c1cccc(OCC(F)(F)F)c1
cytotoxicity at 70.5 h: -6.16%

Cc1cc(N2Cc3cnn(CCO)c3C2)nc(-c2ccccc2)n1
cytotoxicity at 70.5 h: -11.9%

Cc1ccc(-c2cnnc(NCC3(N4CCOCC4)CCCC3)n2)o1
cytotoxicity at 70.5 h: -8.14%

COc1ccccc1CC(=O)N(CCN1CCOCC1)Cc1ccco1
cytotoxicity at 70.5 h: -1.43%

Cc1ccc(C(C(=O)NC(C)(C)CN2CCCC2)N(C)C)cc1 (centres undefined)
cytotoxicity at 70.5 h: 45%

Cc1cc(CC(C)Nc2nc(-c3cccnc3)nc3c2CNC3)[nH]n1 (centres undefined)
cytotoxicity at 70.5 h: -12%

CCNC(=O)[C@@H]1C[C@H](N)CN1Cc1ccc2cccc(Cl)c2n1
cytotoxicity at 70.5 h: -7.99%

Cc1n[nH]c(CN2CCN(Cc3ccccc3)[C@@H]3CS(=O)(=O)C[C@@H]32)n1
cytotoxicity at 70.5 h: 0.0797%

CCCn1ncc(C(=O)N2CCN(C(=O)c3ccc[nH]3)CC2)c1C
cytotoxicity at 70.5 h: -7.32%

CC(C)[C@@H]1CN(Cc2ccccn2)C[C@H]1NS(=O)(=O)N(C)C
cytotoxicity at 70.5 h: -0.239%

CC(C)(C)NC(=O)[C@@H]1Cc2ccccc2CN1Cc1cccs1
cytotoxicity at 70.5 h: 8.37%

O=C(CCCc1ccc(Cl)cc1)N1CCC(c2nnc[nH]2)CC1
cytotoxicity at 70.5 h: -2.6%

CC(C)(CN1CCC2(CCCNC2)C1)N1CCOCC1 (centres undefined)
cytotoxicity at 70.5 h: 8.57%

CC(C)N1CCC(N2CCCC(C(=O)NCC3(O)CCCCC3)C2)CC1 (centres undefined)
cytotoxicity at 70.5 h: -3.9%

Cc1cc(C)c2nc(CN3CCC(N4CCOC4=O)CC3)cc(O)c2c1
cytotoxicity at 70.5 h: 2.37%

Cc1cccc(CN2CCCC(O)(CNCCc3c[nH]cn3)C2=O)c1 (centres undefined)
cytotoxicity at 70.5 h: 9.08%

CC(=O)NC1CCN(C(=O)c2cnc(COc3ccccc3)nc2O)C1 (centres undefined)
cytotoxicity at 70.5 h: -4.02%

CC(C)(O)c1cn(C2CCN(c3ncccc3Cl)CC2)nn1
cytotoxicity at 70.5 h: 3.9%

Cc1cc(C)c(-n2cccn2)c(CN2CCOCC(CN(C)C)C2)c1 (centres undefined)
cytotoxicity at 70.5 h: -3.75%

CCOCC(=O)N1Cc2cnc(-c3ccccc3)nc2C1
cytotoxicity at 70.5 h: -13%

O=C(c1ccccc1)N1C[C@@H]2CC[C@H](C1)N(S(=O)(=O)c1cccnc1)C2
cytotoxicity at 70.5 h: -7.07%

CN(C)CCOc1cccc(CN2CCCC3(C2)CN(C)C(=O)O3)c1 (centres undefined)
cytotoxicity at 70.5 h: 26%

Oc1cc(CNCCN2CCCCC2)nc2c(F)cccc12
cytotoxicity at 70.5 h: 24.5%

Cc1cccnc1NCCNC(=O)c1cnc(-c2ccccn2)nc1O
cytotoxicity at 70.5 h: 46.5%

COc1cccc(N2CCN(C(=O)C(O)c3ccccc3Cl)CC2=O)c1 (centres undefined)
cytotoxicity at 70.5 h: -4.36%

CCc1cn[nH]c1C1CCN(C(=O)c2cccc(O)c2C)CC1
cytotoxicity at 70.5 h: -12.3%

COCCN(CC1CCCO1)C(=O)CCNC(=O)c1ccccc1F (centres undefined)
cytotoxicity at 70.5 h: -13.6%

Cc1cnc(NC(=O)c2ccc(C3CCCN3CC(C)C)s2)s1 (centres undefined)
cytotoxicity at 70.5 h: -5.46%

O=C(Nc1cccc2ccccc12)N1CCC(N2CCSCC2)CC1
cytotoxicity at 70.5 h: -0.0142%

Cc1ccc(OCc2occc2C(=O)N2C[C@@H]3[C@@H](CN(C)C)[C@@H]3C2)cc1
cytotoxicity at 70.5 h: -9.55%

CCc1cc(N(C)CCc2noc(C)n2)nc(N2CCOCC2)n1
cytotoxicity at 70.5 h: -7.76%

CC(C)Oc1cccc(Cc2nc3c([nH]2)CCCNC3=O)c1
cytotoxicity at 70.5 h: -4.78%

NC(=O)c1ccc(N2CCN(Cc3cccc4nsnc34)CC2)nc1
cytotoxicity at 70.5 h: -4.59%

CN1C(=O)[C@H]2CC[C@@H]1CN(C(=O)Nc1ccccc1C(F)(F)F)C2
cytotoxicity at 70.5 h: -4.06%

CCO[C@H]1C[C@@H](O)C12CCN(C1Cc3ccccc3C1)CC2
cytotoxicity at 70.5 h: -10.5%

O=C(O)c1ccc(CNC(=O)C2CCN(Cc3ccco3)CC2)s1
cytotoxicity at 70.5 h: -3.49%

CC(C)c1nc(CNC(=O)c2ccc(C(C)N3CCCCC3)o2)cs1 (centres undefined)
cytotoxicity at 70.5 h: 11.9%

Cc1cc(C)c2c(N3CCN(C(=O)N4CCOCC4)CC3)ncnc2n1
cytotoxicity at 70.5 h: 30.5%

CCN(CC)C(CNCc1cc(F)cc(F)c1)c1ccco1 (centres undefined)
cytotoxicity at 70.5 h: 20.8%

Cc1ccc(NC2CCCN(CCc3ccccc3)C2)nn1 (centres undefined)
cytotoxicity at 70.5 h: -3.93%

CCCc1nnc(N2CCC3(CCC(=O)N(C)C3)CC2)o1
cytotoxicity at 70.5 h: 4.55%

Oc1ccccc1CN1CCC(n2cc(-c3ccc(F)cc3)nn2)CC1
cytotoxicity at 70.5 h: -4%

CCCn1cc(NC(=O)c2cccc(CN3CC[C@H](O)C3)c2)nn1
cytotoxicity at 70.5 h: -11.9%

CCCn1cnc(NC(=O)NCC2CCS(=O)(=O)C2)n1 (centres undefined)
cytotoxicity at 70.5 h: 12.9%

CCc1nc(CN(C)C(=O)C2CCC(=O)N(CC3CCCCC3)C2)no1 (centres undefined)
cytotoxicity at 70.5 h: -4.07%

Cc1c(CN2CCc3[nH]cnc3C2C2CC2)[nH]c2ccc(F)cc12 (centres undefined)
cytotoxicity at 70.5 h: 4.41%

Cc1ccoc1C(=O)N1CCC(n2cc(CO)nn2)CC1
cytotoxicity at 70.5 h: -3.4%

CCNC(=O)[C@@H]1C[C@H](N)CN1C(=O)CCc1ccc(C)c(C)c1
cytotoxicity at 70.5 h: -3.41%

CSc1nccc(NCc2cc3n(n2)CCCN(S(C)(=O)=O)C3)n1
cytotoxicity at 70.5 h: -12.4%

Cc1nccn1CCCN1CCCC(c2nccn2C)C1 (centres undefined)
cytotoxicity at 70.5 h: 21.3%

COCCN1C[C@H]2CC[C@@H]1CN(Cc1nc3ccccc3n1C)C2
cytotoxicity at 70.5 h: -6.43%

COc1cccc2c1OCC(CNc1ccc(C)nn1)C2 (centres undefined)
cytotoxicity at 70.5 h: -3.11%

Cc1cc(C2CCC2)nc(NCC(C)(C)CO)n1
cytotoxicity at 70.5 h: -2.23%

CC1=NOC(C(=O)N(C)CCCn2nc(C)cc2C)C1 (centres undefined)
cytotoxicity at 70.5 h: -0.336%

OC[C@H]1CN(Cc2c(Cl)cncc2Cl)C[C@H]1CN1CCCCCC1
cytotoxicity at 70.5 h: -1.47%

N#Cc1ccccc1CC1CCCS(=O)(=O)C1 (centres undefined)
cytotoxicity at 70.5 h: 1.43%

COc1ccc(CN(CC2CCCO2)C(=O)CN2CCCCC2=O)cc1 (centres undefined)
cytotoxicity at 70.5 h: -12.9%

Cc1c(NC(=O)NC2CCOCC2)cccc1C(=O)N1CCCC1
cytotoxicity at 70.5 h: 10.6%

CC(C)[C@]1(O)CN(C(=O)C2(Cn3cccn3)CC2)C[C@H]1C
cytotoxicity at 70.5 h: -7.77%

CN(Cc1cc(C(C)(C)C)n[nH]1)C(=O)c1ccccc1C1CCNC1 (centres undefined)
cytotoxicity at 70.5 h: -13.4%

Cc1ccc(-c2cn[nH]c2C2CCCN(c3cnccn3)C2)cc1 (centres undefined)
cytotoxicity at 70.5 h: 10.6%

CN1CC(C(=O)N(C)Cc2cc(-c3cccnc3)no2)NC1=O (centres undefined)
cytotoxicity at 70.5 h: -8.52%

COc1cc(S(=O)(=O)N2C[C@@H](C)[C@@](C)(O)C2)c(C)cc1C
cytotoxicity at 70.5 h: 0.245%

COc1ccc(C(=O)N2CCN(c3cc(CCN)nc(C)n3)CC2)cc1
cytotoxicity at 70.5 h: -0.395%

CCn1c(C2CCCN(Cc3ccc4ccccc4n3)C2)nn(C)c1=O (centres undefined)
cytotoxicity at 70.5 h: -3.7%

CNCCN1C(=O)CC[C@H]2CN(c3ncc(F)cn3)CC[C@H]21
cytotoxicity at 70.5 h: 20%

Cn1cccc1C(=O)N1CCn2nnc(COc3cccnc3)c2C1
cytotoxicity at 70.5 h: -8.46%

COc1cc(N2C[C@H]3CCC[C@@H](CN4CCOCC4)[C@H]3C2)ncn1
cytotoxicity at 70.5 h: -8.48%

O=C1CC2(CCN(Cc3cccnc3)C2)CN1c1ccc2c(c1)OCO2 (centres undefined)
cytotoxicity at 70.5 h: 12.8%

O=C1CO[C@@H]2CN(Cc3cccs3)C[C@H]2N1Cc1cccnc1
cytotoxicity at 70.5 h: -10.9%

O=C1CO[C@@H]2CN(Cc3cccnc3)C[C@H]2N1Cc1ccncc1
cytotoxicity at 70.5 h: -6.09%

— ChEMBL document CHEMBL3507680, “University of Dundee, Gates Library screen for HepG2 cell viability”
